Experimental findings from patent US20020065314A1, “COMPOSITIONS AND METHOD FOR STIMULATING HAIR GROWTH” (priority 1995, published 2002) are described below.

Each structure is given as a SMILES string. Where two headings read alike, the source gives them in different places.

For one series, the system named is C57BL/KsJ db/+ mice. The procedure:
The induction of hair loss following treatment with certain anticancer drugs, such as cyclophosphamide or doxorubicin, is well documented (A. Tierney & J. Taylor (1991) Nurs. Stand 5:29-31; R. R. Love, et al. (1989) Cancer 63:604-612; B. W. Cline (1984) Cancer Nurs. 7:221-228). The following experiment was performed to determine the effect of n-butyl cyanoacrylate on hair regrowth in mice pre-treated with cyclophosphamide or doxorubicin. Twenty mice of strain C57BL/KsJ db/+ were peritoneally injected with either cyclophosphamide in PBS (20 mg per kilogram of body weight) or Doxorubicin in PBS (2 mg per kilogram of body weight) for 10 consecutive days. Then a single 10 μl dose of n-butyl cyanoacrylate was applied topically to an area of the shaved dorsum of each animal. Control mice, which were injected with PBS alone, were treated similarly. The effects of hair regrowth were determined both by phototrichogram (macroscopic observation using photography) and by folliculogram (microscopic observation of histological changes in the treated and untreated skin).

For series [1], the system named is C57BL/KsJ db/+ and C57BL/KsJ db/db mice. As to the kind of experiment: Effect of isobutyl cyanoacrylate on hair growth, topical. Type of series: in vivo, mouse. The conditions noted are these: for Hair growth: 10 μl cm^−2 topical. The procedure: The following experiment was performed to identify the effect of isobutyl cyanoacrylate, a structural analog of n-butyl cyanoacrylate, on hair growth. The shaved backs of C57BL/KsJ db/+ and C57BL/KsJ db/db mice were treated topically at a dose of 10 μl cm^−2 with either isobutyl cyanoacrylate (Sigma Chemical Co., St Louis, Mo.) or n-butyl cyanoacrylate.

The test system is the same in series [2]. As to the kind of experiment: Effect of isobutyl cyanoacrylate on hair growth, topical. Type of series: in vivo, mouse.
The next series has as its system hair growth. As to the kind of experiment: Hair growth stimulation by comparison agents. The conditions noted are these: in vivo.

Turning to `O=P1(N(CCCl)CCCl)NCCCO1` (stereo not shown) [cyclophosphamide, reference compound], in the series with C57BL/KsJ db/+ mice (pre-treatment with the anticancer drug, then topical n-butyl cyanoacrylate), the “pigmentation of new hair and skin in pre-treated animals” value is listed as “lack of pigmentation in the new growth hairs”.
On to `COc1cccc2c1C(=O)c1c(O)c3c(c(O)c1C2=O)C[C@@](O)(C(=O)CO)C[C@@H]3O[C@H]1C[C@H](N)[C@H](O)[C@H](C)O1` [doxorubicin, reference compound], for which the “pigmentation of new hair and skin in pre-treated animals” value with C57BL/KsJ db/+ mice (mouse, in vivo) was “normal pigmentation”.
As for `C=C(C#N)C(=O)OCC(C)C` [isobutyl cyanoacrylate], the Hair growth in series [1] (C57BL/KsJ db/+) is reported as 3+ (high hair regeneration with an area larger than 50% of the treated area). Further, the Hair growth in series [1] (C57BL/KsJ db/db) is 3+ (high hair regeneration with an area larger than 50% of the treated area). Besides, in series [1] (both strains), the “hair growth response compared with that of n-butyl cyanoacrylate” value is recorded as “nearly identical”. In series [1] (both strains, post treatment), the “time at which hair growth was visible” value is 8 to 12 days, the “time at which hair reached full length” value fell in the range of 15 to 18 days and the “time at which many new hair follicles occurred in treated area” value was in the range of 2 to 3 days. Moreover, in the series with mice and rats (mice and rats), the “response compared with hair growth induced by n-butyl cyanoacrylate” value is given as “very similar”. Also, the “hair growth in normal intact skin, in skin of animals pre-treated with anticancer drugs, and at edges of wounds” value in the series on mice and rats (two species (rat and mouse), seven strains of mouse) is “stimulate hair growth”. Further, the “hair growth on dorsum (photograph)” value in series [2] (C57BL/KsJ +/+ mouse, 19 days post application) was ““T” pattern of hair growth”. Besides, the “hair growth response to formulation with about 0.01% monomethyl hydroquinone” value in series [2] (several strains of mice) is listed as “positive response”.
Regarding `CCCCOC(=O)CCCCCCCCC(=O)OCCCC` [sebacic acid dibutyl ester], the “stimulation of hair growth” value with hair growth was “not effective in stimulating hair growth”.
